Assay results as given in US8936941B2, “Compositions useful for cancer detection and treatment, a cancer stem cell model, and methods of production and use thereof” (priority 2008, dated 2015).

Test system: PICSCs
Experiment: Growth and survival of PICSCs after drug treatment
Format: cell-based, mouse
Conditions: siRNA transfection, 10 nM
Procedure: The PICSCs cells were treated with 100 μM drug (suprapharmacological dose) for 48 hours, and their growth and survival were evaluated. […] Moreover, the in vitro testing strategies allows for a mechanistic study of such compounds.

**Q.** Which “neurite formation, cell growth and cell death of PICSCs” value does the source give for “si-DCAMKL-1: siRNA targeting the coding region of DCAMKL-1 (NM_004734), sequence GGGAGUGAGAACAAUCUAC (SEQ ID NO:3) (chemistry not given here; listed as Homo sapiens)” here?
**A.** The value was “inhibited neurite formation, suppressed cell growth and induced cell death”.
